Laboratory results taken from patent publication US20260265265A1, “NOVEL BENZIMIDAZOLONE DERIVATIVE COMPOUND AS AUTOTAXIN INHIBITOR” (LG CHEM, LTD., priority 2023, published 2026).

Target: T1, Recombinant Human ENPP-2/Autotaxin (Homo sapiens, UniProt Q13822)
T1 construct: purchased R&D systems 5255-EN
Experiment: LysoPLD activity measurement (autotaxin enzyme inhibition, choline release, TOOS reagent)
Format: biochemical
Settings: LysoPLD inhibitory activity; substrate 14:0 LysoPC; absorbance at 555 nm
In short: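 Autotaxin lysoPLD activity was read as choline released from 14:0 LysoPC, detected by TOOS reagent absorbance. Compound was preincubated 30 min, then substrate diluted to 300 μM was added and the reaction ran 90 minutes at 37° C. Controls contained 1% DMSO.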

Structure (SMILES) | IC50 [µM]
O=C(O)c1cccc(C2(n3c(=O)n(-c4ccc(C(=O)N5CC6(COC6)C5)cc4)c4cc(Cl)ccc43)CC2)c1 [Example 137, 3-(1-(3-(4-(2-oxa-6-azaspiro[3.3]heptane-6-carbonyl)phenyl)-5-chloro-2-oxo-2,3-dihydro-1H-benzo[d]imidazol-1-yl)cyclopropyl)benzoic acid] | < 0.01
O=C(O)c1cccc(C2(n3c(=O)n(-c4ccc(-c5nnc(C6CCC(F)(F)CC6)o5)cc4)c4cc(Cl)ccc43)CC2)c1 [Example 138, 3-(1-(5-chloro-3-(4-(5-(4,4-difluorocyclohexyl)-1,3,4-oxadiazol-2-yl)phenyl)-2-oxo-2,3-dihydro-1H-benzo[d]imidazol-1-yl)cyclopropyl)benzoic acid] | < 0.01
CN(C)C(=O)Cc1ccc(-n2c(=O)n(C3(c4cccc(C(=O)O)c4)CC3)c3ccc(Cl)cc32)cc1 [Example 139, 3-(1-(5-chloro-3-(4-(2-(dimethylamino)-2-oxoethyl)phenyl)-2-oxo-2,3-dihydro-1H-benzo[d]imidazol-1-yl)cyclopropyl)benzoic acid] | < 0.01
O=C(O)c1cccc(Cn2c(=O)n(-c3ccc(N4CCN(C(=O)C5CC5)CC4)cc3)c3cc(Cl)ccc32)c1F [Example 140, 3-((5-chloro-3-(4-(4-(cyclopropanecarbonyl)piperazin-1-yl)phenyl)-2-oxo-2,3-dihydro-1H-benzo[d]imidazol-1-yl)methyl)-2-fluorobenzoic acid] | 0.01 to 0.1
CCC(=O)N1CCN(c2ccc(-n3c(=O)n(Cc4cccc(C(=O)O)c4F)c4ccc(Cl)cc43)cc2)CC1 [Example 141, 3-((5-chloro-2-oxo-3-(4-(4-propionylpiperazin-1-yl)phenyl)-2,3-dihydro-1H-benzo[d]imidazol-1-yl)methyl)-2-fluorobenzoic acid] | 0.01 to 0.1
O=C(O)c1cccc(Cn2c(=O)n(-c3ccc(N4CCN(C(=O)C5CCC5)CC4)cc3)c3cc(Cl)ccc32)c1F [Example 142, 3-((5-chloro-3-(4-(4-(cyclobutanecarbonyl)piperazin-1-yl)phenyl)-2-oxo-2,3-dihydro-1H-benzo[d]imidazol-1-yl)methyl)-2-fluorobenzoic acid] | 0.01 to 0.1
O=C(O)c1cccc(Cn2c(=O)n(-c3ccc(N4CCN(C(=O)C5CCC(F)(F)CC5)CC4)cc3)c3cc(Cl)ccc32)c1F [Example 143, 3-((5-chloro-3-(4-(4-(4,4-difluorocyclohexane-1-carbonyl)piperazin-1-yl)phenyl)-2-oxo-2,3-dihydro-1H-benzo[d]imidazol-1-yl)methyl)-2-fluorobenzoic acid] | 0.01 to 0.1
O=C(O)c1cccc(C2(n3c(=O)n(-c4nc5ccccc5s4)c4cc(Cl)ccc43)CC2)c1F [Example 144, 3-(1-(3-(benzo[d]thiazol-2-yl)-5-chloro-2-oxo-2,3-dihydro-1H-benzo[d]imidazol-1-yl)cyclopropyl)-2-fluorobenzoic acid] | 0.01 to 0.1
O=C(O)c1cccc(C2(n3c(=O)n(-c4ccc(CN5CCOCC5)cc4)c4cc(Cl)ccc43)CC2)c1 [Example 145, 3-(1-(5-chloro-3-(4-(morpholinomethyl)phenyl)-2-oxo-2,3-dihydro-1H-benzo[d]imidazol-1-yl)cyclopropyl)benzoic acid] | 0.01 to 0.1
O=C(O)c1cccc(C2(n3c(=O)n(-c4ccc(N5CCCC5)cc4)c4cc(Cl)ccc43)CC2)c1 [Example 146, 3-(1-(5-chloro-2-oxo-3-(4-(pyrrolidin-1-yl)phenyl)-2,3-dihydro-1H-benzo[d]imidazol-1-yl)cyclopropyl)benzoic acid] | < 0.01
O=C(O)c1cccc(C2(n3c(=O)n(-c4ccc(N5CCOCC5)cc4)c4cc(Cl)ccc43)CC2)c1 [Example 147, 3-(1-(5-chloro-3-(4-morpholinophenyl)-2-oxo-2,3-dihydro-1H-benzo[d]imidazol-1-yl)cyclopropyl)benzoic acid] | < 0.01
O=C(O)c1cccc(C2(n3c(=O)n(-c4ccc(N5CC6(CCOCC6)C5)cc4)c4cc(Cl)ccc43)CC2)c1 [Example 148, 3-(1-(3-(4-(7-oxa-2-azaspiro[3.5]nonane-2-yl)phenyl)-5-chloro-2-oxo-2,3-dihydro-1H-benzo[d]imidazol-1-yl)cyclopropyl)benzoic acid] | < 0.01
O=C(O)c1cccc(C2(n3c(=O)n(-c4ccc(N5CC6(COC6)C5)cc4)c4cc(Cl)ccc43)CC2)c1 [Example 149, 3-(1-(3-(4-(2-oxa-6-azaspiro[3.3]heptane-6-yl)phenyl)-5-chloro-2-oxo-2,3-dihydro-1H-benzo[d]imidazol-1-yl)cyclopropyl)benzoic acid] | < 0.01
O=C(O)c1cccc(Cn2c(=O)n(-c3ccc(C4CCN(C(=O)C5CC5)CC4)cc3)c3c(F)c(Cl)ccc32)c1F [Example 150, 3-((5-chloro-3-(4-(1-(cyclopropanecarbonyl)piperidin-4-yl)phenyl)-4-fluoro-2-oxo-2,3-dihydro-1H-benzo[d]imidazol-1-yl)methyl)-2-fluorobenzoic acid] | 0.01 to 0.1
CCC(=O)N1CCC(c2ccc(-n3c(=O)n(Cc4cccc(C(=O)O)c4F)c4ccc(Cl)c(F)c43)cc2)CC1 [Example 151, 3-((5-chloro-4-fluoro-2-oxo-3-(4-(1-propionylpiperidin-4-yl)phenyl)-2,3-dihydro-1H-benzo[d]imidazol-1-yl)methyl)-2-fluorobenzoic acid] | 0.01 to 0.1
O=C(O)c1cccc(Cn2c(=O)n(-c3ccc(C4CCN(C(=O)C5CCC5)CC4)cc3)c3c(F)c(Cl)ccc32)c1F [Example 152, 3-((5-chloro-3-(4-(1-(cyclobutanecarbonyl)piperidin-4-yl)phenyl)-4-fluoro-2-oxo-2,3-dihydro-1H-benzo[d]imidazol-1-yl)methyl)-2-fluorobenzoic acid] | 0.01 to 0.1
CN(C)c1ccc(-n2c(=O)n(C(C)(C)c3cccc(C(=O)O)c3)c3ccc(Cl)cc32)cc1 [Example 153, 3-(2-(5-chloro-3-(4-(dimethylamino)phenyl)-2-oxo-2,3-dihydro-1H-benzo[d]imidazol-1-yl)propane-2-yl)benzoic acid] | 0.01 to 0.1
CC(C)(c1cccc(C(=O)O)c1)n1c(=O)n(-c2ccc(N3CC(O)C3)cc2)c2cc(Cl)ccc21 [Example 154, 3-(2-(5-chloro-3-(4-(3-hydroxyazetidin-1-yl)phenyl)-2-oxo-2,3-dihydro-1H-benzo[d]imidazol-1-yl)propane-2-yl)benzoic acid] | 0.01 to 0.1
O=C(O)c1cccc(C2(n3c(=O)n(-c4ccc(C5CCOCC5)cc4)c4cc(Cl)ccc43)CCC2)c1 [Example 155, 3-(1-(5-chloro-2-oxo-3-(4-(tetrahydro-2H-pyran-4-yl)phenyl)-2,3-dihydro-1H-benzo[d]imidazol-1-yl)cyclobutyl)benzoic acid] | 0.01 to 0.1
CN(C)c1ccc(-n2c(=O)n(C3(c4cccc(C(=O)O)c4)CCC3)c3ccc(Cl)cc32)cc1 [Example 156, 3-(1-(5-chloro-3-(4-(dimethylamino)phenyl)-2-oxo-2,3-dihydro-1H-benzo[d]imidazol-1-yl)cyclobutyl)benzoic acid] | 0.01 to 0.1
CN(C)C(=O)c1ccc(-n2c(=O)n(C3(c4cccc(C(=O)O)c4)CCC3)c3ccc(Cl)cc32)cc1 [Example 157, 3-(1-(5-chloro-3-(4-(dimethylcarbamoyl)phenyl)-2-oxo-2,3-dihydro-1H-benzo[d]imidazol-1-yl)cyclobutyl)benzoic acid] | < 0.01
CC(C)(c1cccc(C(=O)O)c1)n1c(=O)n(-c2ccc(C3CCOCC3)cc2)c2cc(Cl)ccc21 [Example 158, 3-(2-(5-chloro-2-oxo-3-(4-(tetrahydro-2H-pyran-4-yl)phenyl)-2,3-dihydro-1H-benzo[d]imidazol-1-yl)propan-2-yl)benzoic acid] | 0.01 to 0.1
O=C(O)c1cccc(C2(n3c(=O)n(-c4ccc(N5CC(O)C5)cc4)c4cc(Cl)ccc43)CC2)c1 [Example 159, 3-(1-(5-chloro-3-(4-(3-hydroxyazetidin-1-yl)phenyl)-2-oxo-2,3-dihydro-1H-benzo[d]imidazol-1-yl)cyclopropyl)benzoic acid] | < 0.01
O=C(O)c1cccc(C2(n3c(=O)n(-c4ccc(N5CCC(F)(F)CC5)cc4)c4cc(Cl)ccc43)CC2)c1 [Example 160, 3-(1-(5-chloro-3-(4-(4,4-difluoropiperidin-1-yl)phenyl)-2-oxo-2,3-dihydro-1H-benzo[d]imidazol-1-yl)cyclopropyl)benzoic acid] | < 0.01
CN(C)c1ccc(-n2c(=O)n(Cc3cccc(C(=O)O)c3)c3ncc(Cl)cc32)cc1 [Example 161, 3-((6-chloro-1-(4-(dimethylamino)phenyl)-2-oxo-1,2-dihydro-3H-imidazo[4,5-b]pyridin-3-yl)methyl)benzoic acid] | 0.1 to 1
O=C(O)c1cccc(Cn2c(=O)n(-c3ccc(N4CCOCC4)cc3)c3cc(Cl)cnc32)c1 [Example 162, 3-((6-chloro-1-(4-morpholinophenyl)-2-oxo-1,2-dihydro-3H-imidazo[4,5-b]pyridin-3-yl)methyl)benzoic acid] | 0.1 to 1
O=C(O)c1cccc(Cn2c(=O)n(-c3ccc(C4CC4)cn3)c3cc(Cl)ccc32)c1 [Example 163, 3-((5-chloro-3-(5-cyclopropylpyridin-2-yl)-2-oxo-2,3-dihydro-1H-benzo[d]imidazol-1-yl)methyl)benzoic acid] | 0.1 to 1
CN(C)c1ccc(-n2c(=O)n(Cc3cccc(C(=O)O)c3)c3ccc(Cl)cc32)nc1 [Example 164, 3-((5-chloro-3-(5-(dimethylamino)pyridin-2-yl)-2-oxo-2,3-dihydro-1H-benzo[d]imidazol-1-yl)methyl)benzoic acid] | 0.1 to 1
O=C(O)c1cccc(C2(n3c(=O)n(-c4ccc(N5CCC(F)(F)C5)nc4)c4cc(Cl)ccc43)CC2)c1 [Example 165, 3-(1-(5-chloro-3-(6-(3,3-difluoropyrrolidin-1-yl)pyridin-3-yl)-2-oxo-2,3-dihydro-1H-benzo[d]imidazol-1-yl)cyclopropyl)benzoic acid] | < 0.01
